The target of one assay is TC-PTP (Homo sapiens (Human), UniProt P17706). The assay is described as follows: PTP activity assay with pNPP substrate, TC-PTP. The format is biochemical. As to conditions: for IC50: read-out: IC50 for TC-PTP. The procedure:
(§1) The PTP activity was assayed using p-nitrophenyl phosphate (pNPP) as a substrate in DMG buffer at 25° C. […] The reaction rate was measure using a SPECTRAMAX microplate spectrophotometer (Molecular Devices). For the determination of Km, the initial velocity and substrate concentration data were fitted to Michaelis-Menten equation using SIGMAPLOT. […] The assays were performed in 96-well plates. […] The reaction rate was measured using a Spectra Max Plus 384 Microplate Spectrophotometer (Molecular Devices). […] The reactions were incubated at room temperature for 30 min and quenched with 5N NaOH. The absorbance at 405 nm was read on the SpectraMax Plus 384 Microplate Spectrophotometer. For the reversibility test, the enzyme was incubated with the inhibitor at room temperature for 30 min before pNPP was added to initiate the reaction. The reaction was then incubated at room temperature for 30 min and quenched and read. […] Data were fitted using SigmaPlot Enzyme Kinetics Module (Systat Software, Inc.)

The target of a further assay is PTP1B (Homo sapiens (Human), UniProt P18031). The assay is described as follows: PTP activity assay with pNPP substrate, PTP1B. Format: biochemical. The procedure:
as §1

The subject of assay [1] is EGFR phosphorylation in PTP1B−/− mouse embryo fibroblast cells. The assay is described as follows: Effect of TC-PTP inhibitor on EGFR phosphorylation (anti-pTyr immunoblot). Format: cell-based. The note with it: 200 nM. The procedure:
To determine the cellular efficacy of 10, its effect on tyrosine phosphorylation of EGFR, a known substrate of TC-PTP (Tiganis et al., 1998; Klingler-Hoffmann et al., 2001; Mattila et al., 2005) was assessed using an antibody against pTyr. The cells were incubated with 10 for 2 hr and subsequently treated either with or without EGF (2 ng/ml) for 10 min.
PTP1B^−/− cells were treated with TC-PTP inhibitor at indicated concentration for 2 h before EGF treatment. After EGF treatment (2 ng/ml) for 10 min, cells were lysed in 10 mM HEPES, pH 7.4, 150 mM NaCl, 10% Glycerol, 10 mM sodium phosphate, 10 mM sodium fluoride, 1 mM sodium pervanadate, 1 mM benzamidine, 1% Triton X-100, 10 μg/ml leupeptin, and 5 μg/ml aprotinin. Cell lysates were cleared by centrifugation at 15,000 rpm for 10 min. The lysate protein concentration was estimated using the BCA protein assay kit (PIERCE). To detect EGFR phosphorylation levels, 10 μg of anti-EGFR antibody (CELL SIGNALING, #2232) was added to 1 mg of cell lysate and incubated at 4° C. for 2 h. […] of protein A/G-agarose beads were then added and incubated for another 2 h. After extensive washing, the protein complex was boiled with sample buffer, separated by SDS-PAGE, transferred electrophoretically to PVDF membrane, and immunoblotted with anti-pTyr antibodies (MILLIPORE, #05-1050) followed by incubation with horseradish peroxidase-conjugated secondary antibodies. The blots were developed by the enhanced chemiluminescence technique (ECL kit, AMERSHAM BIOSCIENCES).
PTP1B^−/− mouse embryo fibroblast cells were treated with TC-PTP inhibitor at the indicated concentration for 2 h prior to EGF treatment. After EGF treatment (2 ng/mL) for 10 min, cells were lysed in 10 mM HNEPES, pH 7.4, […], 10% Glycerol, 10 mM sodium phosphate, 10 mM sodium fluoride, 1 mM sodium pervanadate, 1 mM benzamidine, 1% Triton X-100, 10 μg/mL leupeptin, and 5 μg/mL aprotinin. Cell lysates were cleared by centrifugation at 15 000 rpm for 10 min. The lysate protein concentration was estimated using the BAC protein assay kit (Pierce). To detect EGFR phosphorylation levels, 10 μg of anti-EGFR antibody (Cell Signaling, #2232) were added to 1 mg of cell lysate and incubated at 4° C. for 2 h. 20 μL of protein A/G-agarose beads were then added and incubated for another 2 hr. After extensive washing, the protein complex was boiled with sample buffer, separated by SDS-PAGE, transferred electrophoretically to a PVDF membrane, and immunoblotted with anti-pTyr antibodies (Millipore, #5-1050) followed by incubation with horseradish peroxidase conjugalated secondary antibodies. The blots were developed by enhanced chemiluminescence technique (ECL kit, Amersham Biosciences).
The cellular efficacy of compound 10 was assessed by examining its effect on tyrosine phosphorylation of EGFR, a known substrate of TC-PTP. Referring now to FIG. 2 B. PTP1B^−/− mouse embryo filbroblast cells were incubated with compound 10 at various concentrations for 2 h and subsequently treated either with or without EGF (2 ng/mL) for 10 min Inhibition of TC-PTP is expected to enhance endrogenous levels of phosphorylated EGFR. […] Remarkably, the phosphorylated form of EGFR is increased nearly 2-fold even at an inhibitor concentration of 5 nM (1.2×Ki).

Setting [2] is: 2 mM pNPP, DMG buffer, 25° C., Table 1.

Read-outs that look alike come from different tables or passages of the source. Where a SMILES comes first, the peptide text is derived from it. [ ]: non-standard residue; d: D form. F2Pmp = N[CH](Cc1ccc(C(F)(F)P(=O)(O)O)cc1)C(=O)O

PTP1B, sequence (P18031 whole entry, species assumed): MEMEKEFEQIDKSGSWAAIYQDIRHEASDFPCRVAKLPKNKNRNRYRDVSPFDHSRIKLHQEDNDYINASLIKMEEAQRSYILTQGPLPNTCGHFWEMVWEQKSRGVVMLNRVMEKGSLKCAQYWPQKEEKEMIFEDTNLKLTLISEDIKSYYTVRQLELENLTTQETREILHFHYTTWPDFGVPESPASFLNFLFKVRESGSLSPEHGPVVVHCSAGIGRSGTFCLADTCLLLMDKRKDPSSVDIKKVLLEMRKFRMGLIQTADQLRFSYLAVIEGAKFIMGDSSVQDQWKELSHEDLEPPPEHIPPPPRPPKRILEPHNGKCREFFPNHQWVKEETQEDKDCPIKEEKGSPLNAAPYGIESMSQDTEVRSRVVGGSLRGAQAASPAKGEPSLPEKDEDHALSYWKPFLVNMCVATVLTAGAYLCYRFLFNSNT
TC-PTP, sequence (P17706 whole entry): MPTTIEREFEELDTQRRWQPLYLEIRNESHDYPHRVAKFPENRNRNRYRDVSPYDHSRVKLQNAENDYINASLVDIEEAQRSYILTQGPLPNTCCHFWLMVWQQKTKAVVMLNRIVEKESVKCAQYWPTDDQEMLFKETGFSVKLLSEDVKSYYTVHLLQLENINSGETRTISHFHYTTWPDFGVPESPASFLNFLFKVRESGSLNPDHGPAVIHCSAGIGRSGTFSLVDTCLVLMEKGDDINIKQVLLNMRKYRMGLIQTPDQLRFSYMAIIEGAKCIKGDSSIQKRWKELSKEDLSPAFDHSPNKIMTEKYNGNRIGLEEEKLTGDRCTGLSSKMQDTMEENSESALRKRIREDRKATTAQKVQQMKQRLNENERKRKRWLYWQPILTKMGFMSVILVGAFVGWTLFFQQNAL

On to `CC(=O)NCCCCC(NC(=O)C(Cc1ccc(C(F)(F)P(=O)(O)O)cc1)NC(C)=O)C(N)=O` (stereo not shown) [Compound 4] (Ac-[F2Pmp]-Lys(Ac)-NH2; configuration not given here), for which the half-inhibitory concentration (IC50) at TC-PTP (setting [2]) and on PTP1B (setting [2]) was 2000 nM in each case.

With `CCc1ccc(C(=O)NCCCCC(NC(=O)C(Cc2ccc(C(F)(F)P(=O)(O)O)cc2)NC(C)=O)C(N)=O)cc1` (stereo not shown) [Compound 6], the IC50 stood at 160 ± 20 nM at TC-PTP (setting [2]) and 700 ± 20 nM at PTP1B (setting [2]). Further, the “selectivity for TC-PTP over PTP1B” value at TC-PTP (TC-PTP versus PTP1B) is given as 4.4 fold. For the same compound, the “fold lower TC-PTP IC50 than parent compound 4” value at TC-PTP (relative to compound 4) worked out at 12.5 fold.

`CCc1ccc(C(=O)NCCCCC(NC(=O)C(Cc2ccc(C(F)(F)P(=O)(O)O)cc2)NC(=O)C(Cc2ccccc2)NC(C)=O)C(N)=O)cc1` (stereo not shown) [Compound 8]: the IC50 at TC-PTP (setting [2]) came out at 26 ± 2 nM. Further, at TC-PTP (relative to compound 6), the “change in selectivity against PTP1B relative to 6” value is recorded as “no appreciable change” and the “fold increase in affinity for TC-PTP relative to 6” value is given as 6.2 fold. On PTP1B (setting [2]), this compound registered an IC50 of 87 ± 2 nM.

Take `CCc1ccc(C(=O)NCCCCC(NC(=O)C(Cc2ccccc2)NC(=O)C(Cc2ccccc2)NC(=O)COC2CC(C)CCC2C(C)C)C(N)=O)cc1` (stereo not shown) [Compound 11]: the “effect on EGFR phosphorylation” value in assay [1] is reported as “no effect”.

With `O=C(N[C@@H](Cc1ccc(C(F)(F)P(=O)(O)O)cc1)C(=O)O)OCC1c2ccccc2-c2ccccc21` [Fmoc-F2Pmp-OH, reference compound], the IC50 on TC-PTP (known competitive ligand) and on PTP1B (known competitive ligand) was 20000 nM throughout.

The values are drawn from patent US9217012B2, “Inhibitors of protein tyrosine phosphatases” (Indiana University Research and Technology Corporation, priority 2009, dated 2015).
